# Data taken from patent US8895547B2, “Substituted phenyl-oxathiazine derivatives, method for producing them, drugs containing said compounds and the use thereof” (Sanofi, priority 2011, dated 2014).
# pIC50: −log10 of the molar value.
# Target: T1, human 11β-HSD1 (Homo sapiens, UniProt P28845)
# T1 construct: host or cells: microsome fraction
# Test: Enzymatic 11beta-HSD1 test (SPA-based detection)
# Assay type: biochemical
# Settings: human 11β-HSD1 microsome fraction, [1,2-3H]-cortisone, NADPH, 37° C. 1 hour
# How it was run: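 Human 11β-HSD1 microsomes (0.2 µg protein) converted [1,2-3H]-cortisone ([…]) for 1 h at 37 °C. The reaction buffer was HEPES/KCl/NaCl/MgCl2 with 0.25 mM NADPH, with compounds added in DMSO. The reaction was stopped with SPA beads, anti-cortisol monoclonal antibody and 0.01 mM SSR110887; after 1 h at room temperature, [3H]-cortisol was scintillation-counted.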
# T1 sequence (P28845 whole entry): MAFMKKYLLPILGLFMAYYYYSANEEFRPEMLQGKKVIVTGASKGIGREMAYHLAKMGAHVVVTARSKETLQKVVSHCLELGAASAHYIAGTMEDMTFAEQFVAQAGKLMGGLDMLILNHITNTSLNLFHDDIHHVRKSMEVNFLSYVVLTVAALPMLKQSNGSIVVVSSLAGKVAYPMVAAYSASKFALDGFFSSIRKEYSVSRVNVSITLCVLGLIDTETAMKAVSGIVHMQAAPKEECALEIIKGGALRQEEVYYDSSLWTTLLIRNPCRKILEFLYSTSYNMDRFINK
row,pIC50,SMILES
1,7.96,"CC1(C)OC(N[C@@H](CCO)c2ccccc2F)=NS(=O)(=O)C1c1ccc(-c2ccc(Cl)s2)cc1 (stereo partly drawn) [Example 91, (S)-3-{5-[4-(5-Chlorothiophen-2-yl)-phenyl]-6,6-dimethyl-4,4-dioxo-5,6-dihydro-4H-4lambda6-[1,4,3]oxathiazin-2-ylamino}-3-(2-fluorophenyl)-propan-1-ol]"
2,7.64,"CC1(C)OC(N[C@@H](CCO)c2ccccc2F)=NS(=O)(=O)C1c1ccc(-c2cc(Cl)sc2Cl)cc1 (stereo partly drawn) [Example 92, (S)-3-{5-[4-(2,5-Dichlorothiophen-3-yl)-phenyl]-6,6-dimethyl-4,4-dioxo-5,6-dihydro-4H-4lambda6-[1,4,3]oxathiazin-2-ylamino}-3-(2-fluorophenyl)-propan-1-ol]"
3,8.22,CC1(C)OC(N[C@@H](CCO)c2ccccc2F)=NS(=O)(=O)C1c1ccc(-c2cccc(C#N)c2)cc1 (some centres unmarked) [Example 93]
4,7.85,"COc1ccccc1-c1ccc(C2C(C)(C)OC(N[C@@H](CCO)c3ccccc3F)=NS2(=O)=O)cc1 (stereo partly drawn) [Example 94, (S)-3-(2-Fluorophenyl)-3-[5-(2′-methoxy-biphenyl-4-yl)-6,6-dimethyl-4,4-dioxo-5,6-dihydro-4H-4lambda6-[1,4,3]oxathiazin-2-ylamino]-propan-1-ol]"
5,8.22,CC1(C)OC(N[C@@H](CCO)c2ccccc2F)=NS(=O)(=O)C1c1ccc(-c2ccc(C#N)cc2)cc1 (some centres unmarked) [Example 95]
6,8.00,"CC1(C)OC(N[C@@H](CCO)c2cccc(F)c2Cl)=NS(=O)(=O)C1c1ccc(-c2ccccc2)cc1 (stereo partly drawn) [Example 96, (S)-3-(5-Biphenyl-4-yl-6,6-dimethyl-4,4-dioxo-5,6-dihydro-4H-4lambda6-[1,4,3]oxathiazin-2-ylamino)-3-(2-chloro-3-fluorophenyl)-propan-1-ol]"
7,7.80,"CC1(C)OC(N[C@@H](CCO)c2ccc(F)cc2F)=NS(=O)(=O)C1c1ccc(-c2ccccc2)cc1 (stereo partly drawn) [Example 97, (S)-3-(5-Biphenyl-4-yl-6,6-dimethyl-4,4-dioxo-5,6-dihydro-4H-4lambda6-[1,4,3]oxathiazin-2-ylamino)-3-(2,4-difluorophenyl)-propan-1-ol]"
8,7.92,"CC1(C)OC(N[C@@H](CCO)c2cc(F)ccc2F)=NS(=O)(=O)C1c1ccc(-c2ccccc2)cc1 (stereo partly drawn) [Example 98, (S)-3-(5-Biphenyl-4-yl-6,6-dimethyl-4,4-dioxo-5,6-dihydro-4H-4lambda6-[1,4,3]oxathiazin-2-ylamino)-3-(2,5-difluorophenyl)-propan-1-ol]"
9,7.60,"CC1(C)OC(N[C@@H](CCO)c2cc(Cl)ccc2F)=NS(=O)(=O)C1c1ccc(-c2ccccc2)cc1 (stereo partly drawn) [Example 99, (S)-3-(5-Biphenyl-4-yl-6,6-dimethyl-4,4-dioxo-5,6-dihydro-4H-4lambda6-[1,4,3]oxathiazin-2-ylamino)-3-(5-chloro-2-fluorophenyl)-propan-1-ol]"
10,7.72,"Cc1ccc(F)cc1[C@H](CCO)NC1=NS(=O)(=O)C(c2ccc(-c3ccccc3)cc2)C(C)(C)O1 (stereo partly drawn) [Example 100, (S)-3-(5-Biphenyl-4-yl-6,6-dimethyl-4,4-dioxo-5,6-dihydro-4H-4lambda6-[1,4,3]oxathiazin-2-ylamino)-3-(5-fluoro-2-methyl-phenyl)-propan-1-ol]"
11,8.30,"CC1(C)OC(N[C@@H](CCO)c2ccccc2F)=NS(=O)(=O)C1c1ccc(-c2cscn2)cc1 (stereo partly drawn) [Example 101, (S)-3-[6,6-Dimethyl-4,4-dioxo-5-(4-thiazol-4-yl-phenyl)-5,6-dihydro-4H-4lambda6-[1,4,3]oxathiazin-2-ylamino]-3-(2-fluorophenyl)-propan-1-ol]"
12,8.22,"CC1(C)OC(N[C@@H](CCO)c2ccccc2F)=NS(=O)(=O)C1c1ccc(C(F)(F)F)cc1 (stereo partly drawn) [Example 102, (S)-3-[6,6-Dimethyl-4,4-dioxo-5-(4-trifluormethyl-phenyl)-5,6-dihydro-4H-4lambda6-[1,4,3]oxathiazin-2-ylamino]-3-(2-fluorophenyl)-propan-1-ol]"
13,7.49,CN1CCC(c2ccc(C3C(C)(C)OC(N[C@@H](CCO)c4ccccc4F)=NS3(=O)=O)cc2)CC1 (some centres unmarked) [Example 103]
14,7.55,CC1(C)OC(N[C@@H](CCO)c2ccccc2F)=NS(=O)(=O)C1c1ccc(C2CCN(CCO)CC2)cc1 (some centres unmarked) [Example 104]
15,8.10,CC1(C)OC(N[C@@H](CCO)c2ccccc2F)=NS(=O)(=O)C1c1ccc(C2CCN(CC(F)F)CC2)cc1 (some centres unmarked) [Example 105]
16,7.59,"CC1(C)OC(N[C@@H](CCO)c2ccccc2F)=NS(=O)(=O)C1c1ccc(CCCN)cc1 (some centres unmarked) [Example 106, (5)-3-{5-[4-(3-Amino-propyl)-phenyl]-6,6-dimethyl-4,4-dioxo-5,6-dihydro-4H-4lambda6-[1,4,3]oxathiazin-2-ylamino}-3-(2-fluorophenyl)-propan-1-ol]"

row,pIC50,SMILES
1,7.48,"CC1(C)OC(N[C@@H](CCO)c2ccccc2F)=NS(=O)(=O)C1c1ccc(N2CCOCC2)cc1 (stereo partly drawn) [Example 107, (S)-3-[6,6-Dimethyl-5-(4-morpholin-4-yl-phenyl)-4,4-dioxo-5,6-dihydro-4H-4lambda6-[1,4,3]oxathiazin-2-ylamino]-3-(2-fluorophenyl)-propan-1-ol]"
2,7.38,"CN(C)CCCc1ccc(C2C(C)(C)OC(N[C@@H](CCO)c3ccccc3F)=NS2(=O)=O)cc1 (stereo partly drawn) [Example 108, (S)-3-{5-[4-(3-Dimethylamino-propyl)-phenyl]-6,6-dimethyl-4,4-dioxo-5,6-dihydro-4H-4lambda6-[1,4,3]oxathiazin-2-ylamino}-3-(2-fluorophenyl)-propan-1-ol]"
3,7.10,CN1CCN(c2ccc(C3C(C)(C)OC(N[C@@H](CCO)c4ccccc4F)=NS3(=O)=O)cc2)CC1 (some centres unmarked) [Example 109]
4,7.57,CC1(C)OC(N[C@@H](CCO)c2ccccc2F)=NS(=O)(=O)C1c1ccc(CCCN2CCOCC2)cc1 (some centres unmarked) [Example 110]
5,8.15,"Cn1nccc1-c1ccc(C2C(C)(C)OC(N[C@@H](CCO)c3ccccc3F)=NS2(=O)=O)cc1 (stereo partly drawn) [Example 111, (S)-3-{6,6-Dimethyl-5-[4-(2-methyl-2H-pyrazol-yl)-phenyl]-4,4-dioxo-5,6-dihydro-4H-4lambda6-[1,4,3]oxathiazin-2-ylamino}-3-(2-fluorophenyl)-propan-1-ol]"
6,8.15,"CN(C)C(=O)c1ccc(-c2ccc(C3C(C)(C)OC(N[C@@H](CCO)c4ccccc4F)=NS3(=O)=O)cc2)cc1 (stereo partly drawn) [Example 112, 4′-{2-[(S)-1-(2-fluorophenyl)-3-hydroxy-propylamino]-6,6-dimethyl-4,4-dioxo-5,6-dihydro-4H-4lambda6-[1,4,3]oxathiazin-5-yl}-biphenyl-4-carboxylic acid dimethylamide]"
7,8.40,"CC1(C)OC(N[C@@H](CCO)c2ccccc2F)=NS(=O)(=O)C1c1ccc(-c2cccnc2)cc1 (stereo partly drawn) [Example 113, (S)-3-[6,6-Dimethyl-4,4-dioxo-5-(4-pyridin-3-yl-phenyl)-5,6-dihydro-4H-4lambda6-[1,4,3]oxathiazin-2-ylamino]-3-(2-fluorophenyl)-propan-1-ol]"
8,8.10,CN1CCN(c2ccc(-c3ccc(C4C(C)(C)OC(N[C@@H](CCO)c5ccccc5F)=NS4(=O)=O)cc3)cc2)CC1 (some centres unmarked) [Example 114]
9,8.30,"Cc1n[nH]cc1-c1ccc(C2C(C)(C)OC(N[C@@H](CCO)c3ccccc3F)=NS2(=O)=O)cc1 (stereo partly drawn) [Example 115, (S)-3-{6,6-Dimethyl-5-[4-(3-methyl-1H-pyrazol-yl)-phenyl]-4,4-dioxo-5,6-dihydro-4H-4lambda6-[1,4,3]oxathiazin-2-ylamino}-3-(2-fluorophenyl)-propan-1-ol]"
10,8.30,"CN(CCCc1ccc(C2C(C)(C)OC(N[C@@H](CCO)c3ccccc3F)=NS2(=O)=O)cc1)CC(F)F (stereo partly drawn) [Example 116, (S)-3-[5-(4-{3-[(2,2-Difluoroethyl)-methyl-amino]-propyl}-phenyl)-6,6-dimethyl-4,4-dioxo-5,6-dihydro-4H-4lambda6-[1,4,3]oxathiazin-2-ylamino]-3-(2-fluorophenyl)-propan-1-ol]"
11,7.64,"CNCCCc1ccc(C2C(C)(C)OC(N[C@@H](CCO)c3ccccc3F)=NS2(=O)=O)cc1 (stereo partly drawn) [Example 117, (S)-3-{6,6-Dimethyl-5-[4-(3-methylamino-propyl)-phenyl]-4,4-dioxo-5,6-dihydro-4H-4lambda6-[1,4,3]oxathiazin-2-ylamino}-3-(2-fluorophenyl)-propan-1-ol]"
12,8.10,"CC1(C)OC(N[C@@H](CCO)c2ccccc2F)=NS(=O)(=O)C1c1ccc(-c2csc(N3CCOCC3)n2)cc1 (stereo partly drawn) [Example 118, (S)-3-{6,6-Dimethyl-5-[4-(2-morpholin-4-yl-thiazol-4-yl)-phenyl]-4,4-dioxo-5,6-dihydro-4H-4lambda6-[1,4,3]oxathiazin-2-ylamino}-3-(2-fluorophenyl)-propan-1-ol]"
13,8.22,"CC1(C)OC(N[C@@H](CCO)c2ccccc2F)=NS(=O)(=O)C1c1ccc(-c2ccncc2)cc1 (stereo partly drawn) [Example 119, (S)-3-[6,6-Dimethyl-4,4-dioxo-5-(4-pyridin-4-yl-phenyl)-5,6-dihydro-4H-4lambda6-[1,4,3]oxathiazin-2-ylamino]-3-(2-fluorophenyl)-propan-1-ol]"
14,8.22,"CC1(C)OC(N[C@@H](CCO)c2ccccc2F)=NS(=O)(=O)C1c1ccc(-c2ccc(C(N)=O)cc2)cc1 (stereo partly drawn) [Example 120, 4′-{2-[(S)-1-(2-fluorophenyl)-3-hydroxy-propylamino]-6,6-dimethyl-4,4-dioxo-5,6-dihydro-4H-4lambda6-[1,4,3]oxathiazin-5-yl}-biphenyl-4-carboxylic acid amide]"
15,8.10,"CC1(C)OC(N[C@@H](CCO)c2ccccc2F)=NS(=O)(=O)C1c1ccc(-c2cn[nH]c2)cc1 (stereo partly drawn) [Example 121, (S)-3-{6,6-Dimethyl-4,4-dioxo-5-[4-(1H-pyrazol-4-yl)-phenyl]-5,6-dihydro-4H-4lambda6-[1,4,3]oxathiazin-2-ylamino}-3-(2-fluorophenyl)-propan-1-ol]"
16,7.46,CN(CCO)CCCc1ccc(C2C(C)(C)OC(N[C@@H](CCO)c3ccccc3F)=NS2(=O)=O)cc1 (some centres unmarked) [Example 122]
